Measurements: patent US20220211477A1, “SURGICAL SYSTEM AND METHODS OF USE” (priority 2021, published 2022)

Key:
myofibroblast formation = conditions: capsular contracture with breast implants, Ajmal et al. (2003); cited from earlier work
fibrinolysis = assay: prevention / reversal of fibrinolysis; conditions: one tenth of the doses used in the non-GLP acute porcine study

SMILES | myofibroblast formation (myofibroblast formation) | effect in reversing fibrinolysis (fibrinolysis)
O=S(=O)([O-])CCS.[Na+] [MESNA, sodium 2-mercaptoethane sulfonate] | diminish myofibroblast formation | –
NC[C@H]1CC[C@H](C(=O)O)CC1 [tranexamic acid, trans-4-(aminomethyl)cyclohexanecarboxylic acid] | – | effective in reversing fibrinolysis
